Columns and labels:
[1] = Inhibition of Vps34 in human MCF7-LC3 cells assessed as starvation-induced autophagy
[2] = Inhibition of Vps34 in human MCF7-LC3 cells assessed as rapamycin-induced autophagy

`Cc1cc(Nc2cc(Cl)nc(Oc3ccc([N+](=O)[O-])cc3)n2)n[nH]1` showed an IC50 [1] of 0.09 µM and an IC50 [2] of 0.04 µM.
